No end group written: not given here. *: point of attachment. Biotin = O=C1N[C@H]2[C@H](CS[C@H]2CCCCC(=O)*)N1
How the values were obtained:
[1] = target: gp41 HIV-1 envelope protein (gp41 fragment) of Example 14 (HIV-1); test: native gel electrophoresis, quantitative analysis
[2] = system: cell surface bound CLIP on Raji and Daudi cells; test: Competition of synthetic peptides with cell surface CLIP (Fitc anti-human CLIP); type: cell-based; details: biotinylated peptides
From the text: Based on a computational model comparing the peptide content of TNP mixture and identifying those peptides that would have the likeliest ability to compete for the peptide/antigen binding site for MHC class II (human HLA-DR, DP, and DQ), several peptide candidates were synthesized and examined for activity. The purpose of the study was to determine if synthetic peptides can compete for binding with CLIP peptides as measured with either Fitc anti-human CLIP antibody or, comparatively in the case of biotinylated peptides, with Streptavidin.
Cell Culture Conditions: The Raji and Daudi cell lines were purchased from American Type Culture Collection, were thawed, and grown in RPMI 1640 medium supplemented with standard supplements, including 10% fetal calf serum, gentamycin, penicillin, streptomycin, sodium pyruvate, HEPES buffer, 1-glutamine, and 2-ME.
Protocol: Cells were plated into a 12 well plate with 3 mls total volume containing approximately 1.5×10^6/well for Daudi cells and 3.0×10^6/well for Raji cells. Treatment groups included no treatment as control; MKN 3 and MKN 5 at 50 microMolar final concentration based on the reported molarity of the synthesized compounds.
The cells were incubated at 37° C. in an atmosphere containing 5% CO2 and approximately 92% humidity. The cells were incubated for 4 and 24 hours. At each time point, the cells from that experimental time were harvested and stained for flow cytometric analysis of cell surface expression of CLIP (MHC Class II invariant peptide, human) by using the commercially available (Becton/Dickinson/PHarmingen) anti-human CLIP Fitc. Catalogue #555981 versus Streptavidin.
Harvested cells were stained using standard staining procedure that called for a 1:100 dilution of Fitc-anti-human CLIP or isotype control versus 1:200 dilution of the commercially prepared Streptavidin. Following staining on ice for 25 minutes, cells were washed with PBS/FCS and resuspended in 100 microliters and added to staining tubes containing 400 microliters of PBS. Samples were acquired and analyzed on a Coulter Excel Flow Cytometer.
In the Histogram analyses of FIGS. 4-6 the Y axis represents cell number of the 5000 live cells versus the X axis which is a reflection of relative Fitc fluorescence versus Streptavidin-PE (eBioscience, Cat. #12-4317) that will bind with high affinity to cell-bound biotinylated peptides. The distance between the histogram from the isotype control staining versus the histogram reflecting the specific stain and is a measure of level of cell surface CLIP or the biotinylated peptide when stained with Streptavidin on a population of live Raji or Daudi cells as indicated.

[3] = system: cell surface CLIP on Raji or Daudi cells; details: 24 and 48 hours; cited from earlier work
[4] = system: cell surface CD74 on Raji or Daudi cells; details: 24 and 48 hours; cited from earlier work

Substance: thymus nuclear protein (TNP) extract from calf thymus
- binding stoichiometry (TNP to gp41) (gp41 per 1 TNP (ratio 1:0.8)) [1]: 0.8

Substance: SGG GKA LVQ NDT LLQ VKG (Biotin-SGGGKALVQNDTLLQVKG) [TNP1]
- Cell surface bound CLIP (Fitc-Anti-CLIP) ([2]; 4 hours): small decreases
- Cell surface bound CLIP (Fitc-Anti-CLIP) ([2]; 24 hours): significant decreases

Substance: FRIMAVLAS [SGG GAN SGF RIM AVL ASG GQY, unmodified form is MKN.4]
- Cell surface bound CLIP (Fitc-Anti-CLIP) ([2]; 4 hours): small decreases
- Cell surface bound CLIP (Fitc-Anti-CLIP) ([2]; 24 hours): significant decreases

Substance: SGG GSK MRM ATP LLM QAL Y [MKN1]
- Cell surface CLIP levels [3]: alters
- Cell surface CD74 levels [4]: alters

Reference: patent US20100166789A1, “PROTEINS FOR USE IN DIAGNOSING AND TREATING INFECTION AND DISEASE” (The Regents of the University of Colorado, priority 2008, published 2010)
